From US20250195502A1, “APPLICATION OF TETRACYCLIC COMPOUND IN TREATMENT OF TUMORS” (SHANGHAI SHIJIANG BIOTECHNOLOGY CO., LTD, priority 2022, published 2025)

What follows are compounds tested on Con-NCI-H82 cell (NCI-H82 transfected with empty virus vector) (assay: Cell viability assay (Promega CellTiter-Glo), inhibitory effect on Con-NCI-H82 cell). Conditions: Homo sapiens, NCI-H82, read-out: inhibitory effect on Con-NCI-H82 (IC50).
Format: cell-based
Procedure: (§1) The role of expression level of NNMT gene and DNMT1 in the sensitivity of NCI-H82 cell to the compounds prepared in the Examples of the present invention was determined
(§2) The expression of NNMT protein in NCI-H82 cell was overexpressed by inserting the NNMT gene into NCI-H82 cell using a viral vector, and the NNMT protein-overexpressing NCI-H82 cell (ov-NNMT NCI-H82 cell) was obtained. The expression of DNMT1 in NCI-H82 cell was knocked down transfecting (the by shRNA nucleotide sequence of shRNA was […] TTTTTG (SEQ ID No: 2)) using a viral vector, and the NCI-H82 cell with low expression of DNMT1 protein (sh-DNMT1 NCI-H82 cell) was obtained. The control NCI-H82 cell (Con-NCI-H82 cell) was obtained by transfecting NCI-H82 cell with empty virus vector without carrying NNMT gene and shRNA. The expressing content of NNMT protein and DNMT1 protein in the Con-NCI-H82 cell, the expressing content of NNMT protein in the ov-NNMT NCI-H82 cell, and the expressing content of DNMT1 protein in the sh-DNMT1 NCI-H82 cell were detected using Western Blot assay (as shown in FIG. 15 and FIG. 16), it could be seen from FIG. 15 and FIG. 16 that the NNMT protein was overexpressed in the ov-NNMT NCI-H82 cell and the expression of DNMT1 protein was knocked down (i.e, low expression) in the sh-DNMT1 NCI-H82 cell compared with the expression level of NNMT protein and DNMT protein in the Con-NCI-H82 cell.

SMILES	IC50 [nM]
COc1ccc2cc3[n+](cc2c1OCCCCl)CCc1cc2c(cc1-3)OCO2 [compound AB35483]	1260
COc1ccc2cc3[n+](cc2c1OCCCl)CCc1cc2c(cc1-3)OCO2 [compound AB36404]	1060
COc1c(OCCCCl)ccc2cc3[n+](cc12)CCc1cc2c(cc1-3)OCO2 [compound AB36425]	850

What follows are compounds tested on sh-DNMT1 NCI-H82 cell (DNMT1 knocked down NCI-H82) (assay: Cell viability assay (Promega CellTiter-Glo), inhibitory effect on sh-DNMT1 NCI-H82 cell). Conditions: Homo sapiens, NCI-H82 with DNMT1 knocked down by shRNA.
Format: cell-based
Procedure: as §1, §2

SMILES	IC50 [nM]
COc1ccc2cc3[n+](cc2c1OCCCCl)CCc1cc2c(cc1-3)OCO2 [compound AB35483]	5320
COc1ccc2cc3[n+](cc2c1OCCCl)CCc1cc2c(cc1-3)OCO2 [compound AB36404]	4860
COc1c(OCCCCl)ccc2cc3[n+](cc12)CCc1cc2c(cc1-3)OCO2 [compound AB36425]	3880

Each compound was assayed on ov-NNMT NCI-H82 cell (NNMT protein-overexpressing NCI-H82) (assay: Cell viability assay (Promega CellTiter-Glo), inhibitory effect on ov-NNMT NCI-H82 cell). Conditions: Homo sapiens.
Format: cell-based
Procedure: as §1, §2

SMILES	IC50 [nM]
COc1ccc2cc3[n+](cc2c1OCCCCl)CCc1cc2c(cc1-3)OCO2 [compound AB35483]	2880
COc1ccc2cc3[n+](cc2c1OCCCl)CCc1cc2c(cc1-3)OCO2 [compound AB36404]	2540
COc1c(OCCCCl)ccc2cc3[n+](cc12)CCc1cc2c(cc1-3)OCO2 [compound AB36425]	1920
